Results: ChEMBL document CHEMBL3351479, “Novel acylureidoindolin-2-one derivatives as dual Aurora B/FLT3 inhibitors for the treatment of acute myeloid leukemia” (Eur J Med Chem, 2014)
pIC50: −log10 of the molar value.

Key:
MOLM-13 [1] = assay: Cytotoxicity against human MOLM13 cells assessed as cell viability after 48 hrs by MTT assay; assay type: functional, cell-based; conditions: MOLM-13, 48 h
MV4-11 [2] = assay: Cytotoxicity against human MV4-11 cells assessed as cell viability after 48 hrs by MTT assay; assay type: functional, cell-based; conditions: Homo sapiens, MV4-11, 48 h
THP-1 [3] = assay: Cytotoxicity against human THP1 cells assessed as cell viability after 48 hrs by MTT assay; assay type: functional, cell-based; conditions: Homo sapiens, THP-1, 48 h
[4] = Cytotoxicity against human HL60 cells assessed as cell viability after 48 hrs by MTT assay; assay type: functional, cell-based; conditions: HL-60, 48 h
[5] = biological target: T1, Receptor-type tyrosine-protein kinase FLT3 (Homo sapiens, UniProt P36888); assay: Inhibition of FLT3 (unknown origin) using EAIYAAPFAKKK substrate
T1 sequence (P36888 whole entry): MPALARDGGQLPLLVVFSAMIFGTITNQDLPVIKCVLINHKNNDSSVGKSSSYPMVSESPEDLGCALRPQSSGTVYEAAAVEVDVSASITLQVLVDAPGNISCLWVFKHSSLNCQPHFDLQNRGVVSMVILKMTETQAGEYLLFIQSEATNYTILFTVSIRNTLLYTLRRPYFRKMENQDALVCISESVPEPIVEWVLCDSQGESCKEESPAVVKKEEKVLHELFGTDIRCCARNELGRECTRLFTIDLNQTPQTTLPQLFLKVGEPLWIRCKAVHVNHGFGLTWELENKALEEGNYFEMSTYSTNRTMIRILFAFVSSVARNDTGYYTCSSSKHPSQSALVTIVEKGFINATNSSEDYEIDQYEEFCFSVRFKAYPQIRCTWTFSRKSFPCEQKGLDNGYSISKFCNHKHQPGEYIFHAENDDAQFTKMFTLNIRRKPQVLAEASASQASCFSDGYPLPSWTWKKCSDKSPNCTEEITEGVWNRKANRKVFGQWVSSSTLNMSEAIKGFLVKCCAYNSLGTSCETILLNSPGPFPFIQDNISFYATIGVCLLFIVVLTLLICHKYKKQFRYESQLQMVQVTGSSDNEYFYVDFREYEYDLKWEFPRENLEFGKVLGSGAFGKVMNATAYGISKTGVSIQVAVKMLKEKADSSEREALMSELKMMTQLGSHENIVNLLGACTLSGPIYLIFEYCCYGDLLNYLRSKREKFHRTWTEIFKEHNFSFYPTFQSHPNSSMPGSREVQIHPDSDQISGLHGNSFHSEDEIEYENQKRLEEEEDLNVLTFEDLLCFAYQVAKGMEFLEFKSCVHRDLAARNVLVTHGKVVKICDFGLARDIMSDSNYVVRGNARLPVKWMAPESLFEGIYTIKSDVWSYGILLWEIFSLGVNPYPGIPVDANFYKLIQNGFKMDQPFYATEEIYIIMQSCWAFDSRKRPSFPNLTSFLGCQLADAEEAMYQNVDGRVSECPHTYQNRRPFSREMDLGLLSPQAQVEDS

[6] = biological target: Receptor-type tyrosine-protein kinase FLT3 (Homo sapiens) (UniProt P36888); assay: Inhibition of FLT3 (unknown origin) using EAIYAAPFAKKK substrate at 1 uM
Aurora kinase B = Aurora kinase B (Homo sapiens, UniProt Q96GD4); assay: Inhibition of Aurora B (unknown origin) using HLRRASLG substrate at 1 uM
MV4-11 [7] = assay: Cytotoxicity against human MV4-11 cells assessed as cell viability at 1 uM after 48 hrs by MTT assay; assay type: functional; conditions: MV4-11, 48 h, read-out: Activity
MOLM-13 [8] = assay: Cytotoxicity against human MOLM13 cells assessed as cell viability at 1 uM after 48 hrs by MTT assay; assay type: functional; conditions: MOLM-13, 48 h, read-out: Activity
THP-1 [9] = assay: Cytotoxicity against human THP1 cells assessed as cell viability at 1 uM after 48 hrs by MTT assay; assay type: functional; conditions: THP-1, 48 h, read-out: Activity

Sequence of Aurora kinase B (Q96GD4 whole entry): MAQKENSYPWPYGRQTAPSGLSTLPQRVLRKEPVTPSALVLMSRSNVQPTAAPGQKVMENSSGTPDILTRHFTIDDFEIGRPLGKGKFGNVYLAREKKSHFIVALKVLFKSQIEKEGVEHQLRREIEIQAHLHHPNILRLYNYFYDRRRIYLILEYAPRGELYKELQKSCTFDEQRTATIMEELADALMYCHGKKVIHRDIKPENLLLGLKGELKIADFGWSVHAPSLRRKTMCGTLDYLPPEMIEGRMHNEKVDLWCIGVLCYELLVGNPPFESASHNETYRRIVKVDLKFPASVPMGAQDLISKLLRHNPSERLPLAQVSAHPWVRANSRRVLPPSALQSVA

| Structure (SMILES) | pIC50 (MOLM-13 [1]) | pIC50 (MV4-11 [2]) | pIC50 (THP-1 [3]) | pIC50 [4] | pIC50 [5] | inhibition [6] [%] | inhibition (Aurora kinase B) [%] | viability at 1 µM (MV4-11 [7]) [%] | viability at 1 µM (MOLM-13 [8]) [%] | viability at 1 µM (THP-1 [9]) [%] |
| --- | --- | --- | --- | --- | --- | --- | --- | --- | --- | --- |
| O=C(NC(=O)c1ccc(Cl)cc1)Nc1ccc2c(c1)NC(=O)/C2=C\c1ccc[nH]1 | 7.72 | 7.71 | 7.09 | 7.67 | – | – | – | – | – | – |
| COc1ccc(C(=O)NC(=O)Nc2cc3c(cc2F)/C(=C/c2[nH]c(C)c(C(=O)O)c2C)C(=O)N3)c(F)c1 | 7.75 | 7.44 | 7.12 | 7.54 | – | – | – | – | – | – |
| O=C(NC(=O)c1ccccc1)Nc1ccc2c(c1)NC(=O)/C2=C\c1ccc[nH]1 | 6.62 | 6.62 | 6.53 | 6.60 | < 6.00 | – | – | – | – | – |
| COc1ccc(/C=C2/C(=O)Nc3cc(NC(=O)NC(=O)c4ccc(OC)cc4)ccc32)cc1 | 6.62 | 6.64 | 6.42 | 6.47 | – | 43 | 56 | – | – | – |
| COc1ccc(C(=O)NC(=O)Nc2cccc3c2NC(=O)/C3=C\c2ccc[nH]2)cc1 | < 6.30 | < 6.30 | < 6.30 | 6.31 | – | 7 | 7 | 78 | 72 | 53 |
| COc1ccc(C(=O)NC(=O)Nc2ccc3c(c2)NC(=O)/C3=C\c2[nH]c(C)c(CCC(=O)O)c2C)c(F)c1 | 8.40 | 8.21 | 7.21 | 7.78 | – | – | – | – | – | – |
| COc1ccc(C(=O)NC(=O)Nc2ccc3c(c2)NC(=O)/C3=C/c2ccc(N(C)C)cc2)cc1 | 7.37 | 7.34 | 7.05 | 7.30 | – | 40 | 59 | – | – | – |
| COc1ccc(C(=O)NC(=O)Nc2ccc3c(c2)NC(=O)/C3=C\c2[nH]c(C)c(C(=O)NCCN(C)C)c2C)c(F)c1 | 8.28 | 8.09 | 7.20 | 7.85 | – | – | – | – | – | – |
| COc1ccc(C(=O)NC(=O)Nc2ccc3c(c2)NC(=O)/C3=C\c2[nH]c(C)cc2C)cc1 | 7.37 | 7.20 | 6.94 | 7.34 | – | – | – | – | – | – |
| COc1ccc(C(=O)NC(=O)Nc2ccc3c(c2)NC(=O)/C3=C\c2[nH]c(C)c(CCC(=O)N3CCN(C)CC3)c2C)c(F)c1 | 8.04 | 7.96 | 7.19 | 7.80 | – | – | – | – | – | – |
| COc1ccc(C(=O)NC(=O)Nc2cccc3c2/C(=C/c2ccc[nH]2)C(=O)N3)cc1 | 6.52 | 6.45 | 6.45 | 6.48 | – | – | 11 | – | – | – |
| CCN(CCO)CCCOc1ccc2c(Nc3cc(CC(=O)Nc4cccc(F)c4)[nH]n3)ncnc2c1 [DEFOSBARASERTIB] | 8.01 | 8.07 | 7.60 | 7.90 | – | – | – | – | – | – |
| COc1ccc(C(=O)NC(=O)Nc2ccc3c(c2)NC(=O)/C3=C\c2[nH]c(C)c(C(=O)N3CCOCC3)c2C)c(F)c1 | 7.97 | 7.77 | 6.99 | 7.62 | – | – | – | – | – | – |
| COc1ccc(C(=O)NC(=O)Nc2cc3c(cc2F)/C(=C/c2[nH]c(C)c(CCC(=O)O)c2C)C(=O)N3)cc1 | 7.52 | 7.58 | 7.19 | 7.54 | < 6.00 | – | – | – | – | – |
| CCN(CC)CCNC(=O)c1c(C)[nH]c(/C=C2\C(=O)Nc3ccc(F)cc32)c1C [SUNITINIB] | 7.75 | 7.61 | 7.34 | 7.43 | – | – | – | – | – | – |
| CCOC(=O)CCc1c(C)[nH]c(/C=C2\C(=O)Nc3cc(NC(=O)NC(=O)c4ccc(OC)cc4F)ccc32)c1C | 7.96 | 7.82 | 7.27 | 7.52 | < 6.00 | – | – | – | – | – |
| O=C(NC(=O)c1ccc(Cl)c(Cl)c1)Nc1ccc2c(c1)NC(=O)/C2=C\c1ccc[nH]1 | 7.54 | 7.50 | 7.04 | 7.46 | – | – | – | – | – | – |
| COc1ccc(C(=O)NC(=O)Nc2ccc3c(c2)/C(=C/c2ccc[nH]2)C(=O)N3)cc1 | 6.65 | 6.59 | 6.43 | 6.52 | – | – | 39 | – | – | – |
| O=C(NC(=O)c1ccc(C(F)(F)F)cc1)Nc1ccc2c(c1)NC(=O)/C2=C\c1ccc[nH]1 | 6.71 | 6.72 | 6.49 | 6.53 | – | – | – | – | – | – |
| Cc1ccc(C(=O)NC(=O)Nc2ccc3c(c2)NC(=O)/C3=C\c2ccc[nH]2)cc1 | 6.67 | 6.55 | 6.45 | 6.52 | – | – | – | – | – | – |
| COc1ccc(C(=O)NC(=O)Nc2ccc3c(c2)NC(=O)/C3=C\c2[nH]c(C)c(CCC(=O)N3CCOCC3)c2C)c(F)c1 | 7.79 | 7.75 | 7.15 | 7.51 | – | – | – | – | – | – |
| COc1ccc(C(=O)NC(=O)Nc2cc3c(cc2F)/C(=C/c2[nH]c(C)c(CCC(=O)O)c2C)C(=O)N3)c(F)c1 | 8.64 | 8.19 | 7.25 | 8.05 | – | – | – | – | – | – |
| COc1cc(OC)cc(C(=O)NC(=O)Nc2ccc3c(c2)NC(=O)/C3=C\c2ccc[nH]2)c1 | 6.94 | 6.82 | 6.52 | 6.60 | < 6.00 | – | – | – | – | – |
| CN(C)c1ccc(C(=O)NC(=O)Nc2ccc3c(c2)NC(=O)/C3=C\c2ccc[nH]2)cc1 | 6.58 | 6.58 | 6.58 | 6.57 | – | – | – | – | – | – |
| O=C(NC(=O)c1ccc(Cl)c(C(F)(F)F)c1)Nc1ccc2c(c1)NC(=O)/C2=C\c1ccc[nH]1 | 7.95 | 7.85 | 7.16 | 7.63 | – | – | – | – | – | – |
| COc1ccc(C(=O)NC(=O)Nc2ccc3c(c2)NC(=O)/C3=C\c2[nH]c(C)c(C(=O)N3CCN(C)CC3)c2C)c(F)c1 | 8.16 | 7.97 | 7.02 | 7.80 | – | – | – | – | – | – |
| CCN(CC)CCNC(=O)c1c(C)[nH]c(/C=C2\C(=O)Nc3cc(NC(=O)NC(=O)c4ccc(OC)cc4F)ccc32)c1C | 7.89 | 7.75 | 7.39 | 7.69 | – | – | – | – | – | – |
| COc1ccc(C(=O)NC(=O)Nc2ccc3c(c2)NC(=O)/C3=C\c2[nH]c(C)c(CC(=O)O)c2C)cc1 | 8.51 | 8.38 | 7.16 | 8.09 | – | – | – | – | – | – |
| O=C(NC(=O)c1ccccc1F)Nc1ccc2c(c1)NC(=O)/C2=C\c1ccc[nH]1 | 6.63 | 6.63 | 6.48 | 6.57 | – | – | – | – | – | – |
